{"source": "patent US20180133194A1", "about": "“METHOD OF TREATING INFLAMMATION USING NATURAL COMPOUNDS AND/OR DIET” (UNIVERSITY OF FLORIDA RESEARCH FOUNDATION, INCORPORATED, priority 2015, published 2018)", "key": {"[1]": {"details": "in vivo; cited from earlier work"}, "hypoxic-ischemic injury": {"tested_on": "hypoxic-ischemic injury", "details": "neonatal rat, cited from earlier work"}, "[2]": {"details": "cited from earlier work"}, "inflammatory cytokines": {"tested_on": "inflammatory cytokines", "assay": "Cytokine array (RodentMAP) on plasma in paclitaxel-induced model of inflammation", "assay_type": "in vivo, mice", "details": "compared to control; for macrophage-derived chemokine [MDC/CCL22] level: paclitaxel alone", "procedure": "FIG. 1. Using a drug induced model of inflammation, a cytokine array was used to measure inflammatory cytokines, immune system alteration and the ability of our treatment to attenuate and re-establish normal status. Plasma was isolated from mice treated with the different treatments (control, paclitaxel [PTX, 40 mg/kg], NU.001[CS] and PTX+NU.001[PTX+CS]). * indicates p<0.05 and ** indicates p<0.01, one-way ANOVA or t-test, compared to control. # indicates p<0.05 and ## indicates p<0.01, one-way ANOVA or t-test, compared to PTX.\nFIG. 2. NU.001 reduces inflammatory signals in a drug-induced model of inflammation. Animals received oral delivery of NU.001 for 3-4 weeks or a control diet. The microtubule stabilizing agent paclitaxel [40 mg/kg cumulative] was administered to induce inflammation. A cytokine array was used to measure inflammation and immune system status and assess the ability of NU.001 to attenuate or re-establish normal cytokine levels. Plasma was isolated from mice treated with the different treatments (control, paclitaxel, NU.001, and paclitaxel+NU.001). […] Treatment composition is as follows: [1] Control=55% carbohydrates, 30% proteins, 15% fat, [2]\nFIGS. 4A-4B. NU.001 increases levels of Leukemia inhibitory factor [LIF] and CCL22. A. After being fed for 3-4 weeks with control diet or NU.001 diet, plasma was isolated for cytokine screening. […] LIF has been proposed to prevent or treat peripheral neuropathy. *, p <0.05, t-test.\nThe chemotherapeutic agent paclitaxel was used to induce inflammation. Animals were stressed by treating with paclitaxel [40 mg/kg cumulative], resulting in changes in a number of cytokines and related molecules involved in inflammation processes. Animals were treated with NU.001 for 3-4 weeks and blood was taken for plasma isolation. A panel of cytokines was screened using RodentMAP [Myriad/RBM].\nLevels of Leukemia inhibitory factor (LIF) were compared in animals treated with control diet or NU.001 diets. After 4 weeks of treatment, blood was taken and plasma was isolated to measure levels of cytokines. […]"}, "[3]": {"details": "oral doses as high as 500 mg/kg, rodents; cited from earlier work"}, "[4]": {"details": "500 mg/kg/day, divided dosage, 13 weeks, pre-fed dogs; cited from earlier work"}}, "data": [{"molecule": "C[S+]([O-])CCCCN=C=S", "note": "(stereo not drawn) [SFN, sulforaphane]", "values": [{"measurement": "terminal elimination phase", "setting": "[1]", "value": "long"}, {"measurement": "time to peak plasma levels", "setting": "[1]", "value": "≤ 2", "unit": "h"}, {"measurement": "infarct ratio", "setting": "hypoxic-ischemic injury; at 24 hours after hypoxic ischemia", "value": "reduced"}, {"measurement": "expression of Nrf2 antioxidative transcription factor in the brain", "setting": "hypoxic-ischemic injury; hypoxic-ischemic injury", "value": "increased"}, {"measurement": "number of apoptotic cells", "setting": "hypoxic-ischemic injury; hypoxic-ischemic injury", "value": "significantly decreased"}, {"measurement": "safety of dose", "setting": "[2]; 100 mg SFN from oral intake of 68 grams of broccoli sprouts", "value": "safe non-toxic"}, {"measurement": "adverse effects of administration in humans", "setting": "[2]; SFN or SFN-enriched dietary origin items such as broccoli sprouts", "value": "not demonstrated any significant adverse effects"}]}, {"molecule": "CC(=O)O[C@H]1C(=O)[C@@]2(C)[C@H]([C@H](OC(=O)c3ccccc3)[C@]3(O)C[C@H](OC(=O)[C@H](O)[C@@H](NC(=O)c4ccccc4)c4ccccc4)C(C)=C1C3(C)C)[C@]1(OC(C)=O)CO[C@@H]1C[C@@H]2O", "note": "[paclitaxel]", "values": [{"measurement": "inflammation related cytokines", "setting": "inflammatory cytokines; paclitaxel 40 mg/kg cumulative alone", "value": "up-regulated"}, {"measurement": "macrophage-derived chemokine [MDC/CCL22] level", "setting": "inflammatory cytokines", "value": "Lower levels"}, {"measurement": "macrophage-derived chemokine [MDC/CCL22] level", "setting": "inflammatory cytokines; listed as Paclitaxel", "value": "decrease"}]}, {"molecule": "epigallocatechin-3-gallate [EGCG]", "values": [{"measurement": "genotoxicity and short term toxicity", "setting": "[3]", "value": "no genotoxic or short term toxicity"}, {"measurement": "adverse events or toxicity", "setting": "[4]", "value": "no adverse events or toxicity"}]}]}
